Read-outs that look alike come from different tables or passages of the source.
Assays:
NMDAR2A = NMDAR2A protein expression in ARPE-19 cells (immunofluorescence); assay type: cell-based; details: chronic treatment with psilocin carbamate for 96 hours
Protocol: (§1) First, the present inventors assessed the expression of three NMDAR subunits (NMDAR1, NMDAR2A, NMDAR2B) and two 5-HT2 subtypes (5-HT2A, 5-HT2C) by immunofluorescence coupled to confocal microscopy. 7,500 cells/well were plated in a 24-well plate on sterile glass coverslips. The next day, the immunofluorescence analysis was performed. The following primary antibodies were used: anti-NMDAR1A (Abcam, ab68144), NMDAR2A (Bioss, bs-3507R-TR), NMDAR2B (Bioss, bs-0222R-TR), 5-HT2A (Bioss, bs-12049R), 5-HT2C (Bioss, 2959R), and the secondary antibody goat anti-rabbit IgG (GeneTex, GTX213110-04). The images of the immunostained cells were acquired by means of a confocal microscope Zeiss LSM 800, using a 63× magnification and can be seen in FIGS. 9A-9E. ImageJ software was used to quantify the intensity of the fluorescent signal.
(§2) 7,500 cells/well were plated in a 24-well plate on sterile glass coverslips. […] After 6 days an immunofluorescence analysis coupled to confocal microscopy was performed with the primary and secondary antibodies described above.

NMDAR2B = NMDAR2B protein expression in ARPE-19 cells (immunofluorescence); assay type: cell-based; details: chronic treatment with psilocin carbamate for 96 hours
Protocol: as §1, §2

c57BL/6 male mice [1] = assay: Toxicity and tolerability observation, high fructose mice; assay type: in vivo, mouse; details: young
Protocol: (§3) Mice were fed with standard diet and fructose (30% w/v in drinking water) was added to their diet 4 days before randomization.
During the experiment, the animals were carefully monitored every day for a period not exceeding the maximum experimental endpoints. Access to water (30% w/v fructose) and food ad libitum was allowed. No obvious clinical symptoms were observed during the experimental period.

[2] = Body and liver weight at sacrifice, mice; assay type: in vivo, mouse; details: 0.05 mg/kg daily
Protocol: as §3

[3] = Blood glucose after 2-hours fasting, mice; assay type: in vivo, mouse; details: 0.05 mg/kg daily
Protocol: as §3
Before sacrifice, the present inventors measured the blood glucose concentration of the mice after a 2-hours fasting.

c57BL/6 male mice [4] = assay: Locomotion Activity Test (LMA), mice; assay type: in vivo, mouse; details: chronic (14 day) low dose 0.05 mg/Kg
Protocol: In order to ascertain whether the chronic administration of low dose psilocin-carbamate alters behavior in tested mice, the present inventors performed the Locomotion Activity Test (LMA), the Novelty Suppressed Feeding (NSF) test and the olfactory habitation/dishabituation test before and after the psilocin-carbamate treatment.
(§4) LMA has the aim of assessing spontaneous locomotor activity in laboratory animals. This test is performed in a gray arena (open field) exposed to light of regulated intensity (24 and 30 lux), avoiding light-shadow zones within the perimeter in which the experiment takes place. Along the base of the open field, 4 standard sized squares have been drawn, clearly visible even in the dark and large enough to allow the animal to remain inside them in all its length. The LMA test has been preceded by one hour of habituation, at the end of which the rat was inserted inside the open field, in one of the previously designed squares. The movements and behaviors in reaction to the environment were then recorded for 10 minutes.
Three fundamental aspects were assessed: 1. the number of crossings, i.e., the number of crossings made by the animal from one square to another, passing the line defining it with both legs. […]

NMDAR1 = NMDAR1 protein expression in lateral cortex (Western blot); assay type: in vivo, mouse; details: 0.05 mg/kg daily
Protocol: (§5) Mice were euthanized by cervical dislocation. Immediately after the sample, fresh tissues were cut isolating 4 brain regions (cerebellum, lateral cortex, olfactory bulb, and the remaining brain), quickly collected and put in cryovials in liquid nitrogen and then kept at −80° C.
(§6) Brain tissues were lysed in RIPA lysis buffer (Invitrogen) and 1% (v/v) protease and phosphatase inhibitor cocktail (Sigma). Proteins were extracted by centrifugation at 14000 rpm at 4° C. for 30 minutes. Bicinchoninic Acid Assay (BCA) kit (1113 catalog #23225 Thermo-Scientific) was used to determine the protein concentration following the manufacturer's instructions. Western blot analyses to determine NMDAR 1 (primary antibody: Abcam, ab68144), PSD95 (Bioss, bs-0179R-TR), p70 (Bioss, bs-3498R-TR) and synapsin 1 (Bioss, bs-3501 R-TR) protein expression were performed using 30 μg per lane of nuclear or lateral cortex lysates. SDS-PAGE was performed on 8% polyacrylamide gels in reducing-denaturing condition and proteins were transferred to a 0.45 μm nitrocellulose membrane (BioRad Laboratories). Signal intensity of immunoreactive bands was analyzed by the Quantity One software (Bio-Rad Laboratories S.r.l.) and was normalized to that of the loading control GAPDH.

PSD95 = PSD95 protein expression in lateral cortex (Western blot); assay type: in vivo, mouse; details: not significant
Protocol: as §5, §6

synapsin 1 = assay: Synapsin 1 protein expression in lateral cortex (Western blot); assay type: in vivo, mouse; details: adult mice; not significant
Protocol: as §5, §6

p70 = p70 protein expression in lateral cortex (Western blot); assay type: in vivo, mouse; details: not detected in adult mice
Protocol: as §5, §6

Western Diet fed rats [5] = assay: Locomotion Activity Test (LMA), WD rats; assay type: in vivo, rat; details: chronic (15 day) low dose 0.05 mg/Kg
Protocol: as §4, with “In order to ascertain whether the chronic administration of low dose psilocybin alters behavior in WD fed rats, the present inventors performed the Locomotion Activity Test (LMA) before and after the psilocybin treatment (see FIGS. 7A-7C). This test has” for “LMA has”
In the LMA test, three fundamental aspects were assessed: 1. the number of crossings, i.e., the number of crossings made by the animal from one square to another, passing the line defining it with both legs. This value gives an indication of the distance traveled by the animal during the test and of its locomotor activity; 2. the number of rearings, i.e, the number of times the animal lifts up on the two posterior legs. […]

[6] = system: Ki67 positive cells in the subventricular zone; assay: Neurogenesis in SVZ, Ki67 positive cells; assay type: in vivo, rat; details: WD rats, 0.05 mg/Kg gastric gavage 15 days; WD 2722±225, SD 4601±17
Protocol: Methods: To perform immunohistochemistry, rats were euthanized and then perfused with 0.9% saline followed by 4% paraformaldehyde (PFA) in 1× phosphate saline buffer (PBS) (rats n tot=8, n=2 for each condition). Rats brains were promptly dissected and then post-fixed in 4% PFA for 48 hours. Brains were embedded in 2.5% agarose (Sigma-Aldrich) and then sectioned in sagittal sections (40 μm thick) at the vibratome (Vibratome VT1000S, Leica). Sagittal brain sections including the subventricular zone, were treated with a blocking solution of 10% normal goat serum (Jackson ImmunoResearch) in 1×PBS for 1 hour and then stained with rabbit anti-Ki67 monoclonal antibody (Abcam, AB 16667) (1:200) overnight. […] Brain sections were mounted with Aqua-Poly/Mount (Polysciences). Images of the sagittal sections containing the subventricular zone were acquired at the confocal microscope (Zeiss LSM 700) equipped with an EC Plan-Neofluar 20×/0.50 M27 objective (Zeiss). Ki67 positive cells were counted along the lateral wall of the lateral ventricles in rat brain sagittal sections, using ImageJ software (RRID: nif-000030467).

[7] = design: AUC: unit not given beside the values; details: cited from earlier work
[8] = psilocybin 10, 20, 30 mg; cited from earlier work
Western Diet fed rats [9] = assay: Liver histology (hematoxylin-eosin), hepatic steatosis; details: WD rats, 0.05 mg/kg 15 days; median (range in next column); WD alone 15

Compound: CC[C@H](C)[C@H](NC(=O)Oc1cccc2[nH]cc(CCN(C)C)c12)C(=O)O [psilocin-carbamate]
- NMDAR2A expression (NMDAR2A): reduction
- NMDAR2B expression (NMDAR2B): reduction
- Safety and tolerability (c57BL/6 male mice [1]; 0.05 mg/kg daily for 14 days, adult and old mice): safe and well-tolerated
- Signs of toxicity and mortality (c57BL/6 male mice [1]; adult, old mice, 0.05 mg/kg gastric gavage, 14 days): No signs of toxicity and no mortality
- Liver weight at sacrifice ([2]; adult mice): decrease
- Body weight at sacrifice ([2]; adult mice, p<0.05): decrease
- Body and liver weight ([2]; young mice): no effect
- Blood glucose control ([3]; mice): no effect
- Blood glucose concentration ([3]; old mice): tendency towards a lower blood glucose concentration
- Psychedelic behavioral effects (c57BL/6 male mice [4]): no evidence of psychedelic behavioral effects
- NMDAR1 protein expression, lateral cortex (NMDAR1; adult mice): tended to decrease
- NMDAR1 protein expression, lateral cortex (NMDAR1; young and old mice): tended to increase
- PSD95 protein expression, lateral cortex (PSD95; adult mice, tendency): decrease
- PSD95 protein expression, lateral cortex (PSD95; young mice): tended to increase
- Synapsin 1 protein expression, lateral cortex (synapsin 1): tended to increase
- p70 protein expression, lateral cortex (p70): no significant differences

Compound: CN(C)CCc1c[nH]c2cccc(OP(=O)(O)O)c12 [psilocybin]
- Psychedelic behavioral effects (Western Diet fed rats [5]): no evidence of psychedelic behavioral effects
- New cells (Ki67 positive) in SVZ, n [6]: 3404±199
- AUC ([7]; 1 mg IV psilocybin): 240+−55
- Cmax ([7]; 1 mg IV psilocybin): 12.9+−5.6 ng/ml
- AUC ([7]; oral psilocybin 10-20 mg): 1963+−659
- Cmax ([7]; oral psilocybin 10-20 mg): 8.2+−2.8 ng/ml
- Tmax ([7]; oral psilocybin 10-20 mg): 105+−37 min
- Psychomotor performance, working memory, episodic memory, associative learning, visual perception [8]: dose-dependent negative effects
- % Hepatic macrovescicular steatosis (Western Diet fed rats [9]): 5%
